Structures are written as SMILES.

The target of the test is T1, RNR (RNR1:RNR2 1:1) (Homo sapiens, UniProt P23921).
T1 sequence (P23921 1-792): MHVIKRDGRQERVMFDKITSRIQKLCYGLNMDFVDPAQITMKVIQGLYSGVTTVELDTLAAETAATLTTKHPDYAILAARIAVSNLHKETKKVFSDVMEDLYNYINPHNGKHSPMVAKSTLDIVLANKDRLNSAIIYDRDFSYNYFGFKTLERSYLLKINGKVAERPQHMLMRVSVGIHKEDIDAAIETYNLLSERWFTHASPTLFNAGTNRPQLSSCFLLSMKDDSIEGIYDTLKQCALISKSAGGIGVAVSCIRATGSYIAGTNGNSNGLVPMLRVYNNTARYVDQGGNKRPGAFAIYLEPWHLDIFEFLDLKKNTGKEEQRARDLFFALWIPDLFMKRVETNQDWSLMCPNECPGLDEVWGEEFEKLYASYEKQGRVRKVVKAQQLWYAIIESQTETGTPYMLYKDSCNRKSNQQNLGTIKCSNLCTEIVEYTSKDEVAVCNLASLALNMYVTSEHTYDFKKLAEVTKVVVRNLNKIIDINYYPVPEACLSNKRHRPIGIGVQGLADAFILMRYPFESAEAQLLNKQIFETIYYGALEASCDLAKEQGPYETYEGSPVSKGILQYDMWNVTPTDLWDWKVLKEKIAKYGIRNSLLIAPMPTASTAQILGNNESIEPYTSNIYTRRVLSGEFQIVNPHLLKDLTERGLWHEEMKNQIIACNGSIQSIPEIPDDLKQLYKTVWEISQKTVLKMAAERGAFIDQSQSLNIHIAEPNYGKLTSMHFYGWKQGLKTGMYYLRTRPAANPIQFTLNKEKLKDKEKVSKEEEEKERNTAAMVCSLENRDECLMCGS
The experiment in a line: RNR enzyme activity, rapid-fire mass spectrometry (RFMS) assay. The test is classed as biochemical. To be noted: RNR 50 nM, CDP 5 μM, ATP 1 mM, 37° C., 45 min, compounds screened up to 50 μM, read-out: RF/MS IC50. Put shortly: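 Human RNR1:RNR2 (1:1, 50 nM) pre-incubated 15 min at room temperature with compound, then reacted with 5 μM CDP and 1 mM ATP, no NADPH, for 45 min at 37 °C. Stopped with 6% HCOOH; turnover read by rapid-fire mass spectrometry; Triapine and hydroxyurea as reference compounds.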
As for `Cc1ccc(F)c(C(C)[C@H](NS(=O)(=O)N2CCC(CN3CCCC3=O)CC2)c2n[nH]c(=O)o2)c1C` (stereo partly drawn) [Example 65, N-((1S)-2-(6-fluoro-2,3-dimethylphenyl)-1-(5-oxo-4,5-dihydro-1,3,4-oxadiazol-2-yl)propyl)-4-((2-oxopyrrolidin-1-yl)methyl)piperidine-1-sulfonamide], the IC50 lay in the range of 100 to 1000 nM.
With `CNC(=O)CC1CCN(S(=O)(=O)N[C@H](c2n[nH]c(=O)o2)C(C)c2c(F)ccc(C)c2C)CC1` (stereo partly drawn) [Example 66, 2-(1-(N-((1S)-2-(6-fluoro-2,3-dimethylphenyl)-1-(5-oxo-4,5-dihydro-1,3,4-oxadiazol-2-yl)propyl)sulfamoyl)piperidin-4-yl)-N-methylacetamide], the IC50 was 10000 to 100000 nM.
As to `Cc1ccc(F)c(C(C)[C@H](NS(=O)(=O)N2CCC3(CC2)COC(=O)O3)c2n[nH]c(=O)o2)c1C` (stereo partly drawn) [Example 67, N-((1S)-2-(6-fluoro-2,3-dimethylphenyl)-1-(5-oxo-4,5-dihydro-1,3,4-oxadiazol-2-yl)propyl)-2-oxo-1,3-dioxa-8-azaspiro[4.5]decane-8-sulfonamide], the IC50 lay in the range of 10000 to 100000 nM.
To `Cc1ccc(F)c([C@@H](C)[C@H](NS(=O)(=O)N2CCC(c3c[nH]c4ccccc34)CC2)c2n[nH]c(=O)o2)c1C` [Example 68, N-((1S,2R)-2-(6-fluoro-2,3-dimethylphenyl)-1-(5-oxo-4,5-dihydro-1,3,4-oxadiazol-2-yl)propyl)-4-(1H-indol-3-yl)piperidine-1-sulfonamide] belongs 1000 to 10000 nM.
With `Cc1ccc(F)c([C@H](C)[C@H](NS(=O)(=O)N2CCC(c3c[nH]c4ccccc34)CC2)c2n[nH]c(=O)o2)c1C` [Example 69, N-((1S,2S)-2-(6-fluoro-2,3-dimethylphenyl)-1-(5-oxo-4,5-dihydro-1,3,4-oxadiazol-2-yl)propyl)-4-(1H-indol-3-yl)piperidine-1-sulfonamide], the IC50 was in the range of 10000 to 100000 nM.
The value for `Cc1ccc(F)c([C@@H](C)[C@H](NS(=O)(=O)N2CCC(Oc3ccccn3)CC2)c2n[nH]c(=O)o2)c1C` [Example 70, N-((1S,2R)-2-(6-fluoro-2,3-dimethylphenyl)-1-(5-oxo-4,5-dihydro-1,3,4-oxadiazol-2-yl)propyl)-4-(pyridin-2-yloxy)piperidine-1-sulfonamide] was 100 to 1000 nM; that for `Cc1ccc(F)c([C@@H](C)[C@H](NS(=O)(=O)N2CCC3(CCCC3)CC2)c2n[nH]c(=O)o2)c1C` [Example 71, N-((1S,2R)-2-(6-fluoro-2,3-dimethylphenyl)-1-(5-oxo-4,5-dihydro-1,3,4-oxadiazol-2-yl)propyl)-8-azaspiro[4.5]decane-8-sulfonamide] was 100 to 1000 nM.
The value for `Cc1ccc(F)c([C@H](C)[C@H](NS(=O)(=O)N2CCC3(CCCC3)CC2)c2n[nH]c(=O)o2)c1C` [Example 72, N-((1S,2S)-2-(6-fluoro-2,3-dimethylphenyl)-1-(5-oxo-4,5-dihydro-1,3,4-oxadiazol-2-yl)propyl)-8-azaspiro[4.5]decane-8-sulfonamide] was 1000 to 10000 nM.
To `Cc1ccc(F)c(C(C)[C@H](NS(=O)(=O)N2CCC3(CC2)OCc2ccccc23)c2n[nH]c(=O)o2)c1C` (stereo partly drawn) [Example 73, N-((1S)-2-(6-fluoro-2,3-dimethylphenyl)-1-(5-oxo-4,5-dihydro-1,3,4-oxadiazol-2-yl)propyl)-3H-spiro[isobenzofuran-1,4′-piperidine]-1′-sulfonamide] belongs 100 to 1000 nM; to `Cc1ccc(F)c(C(C)[C@H](NS(=O)(=O)N2CCC(c3noc4ccc(F)cc34)CC2)c2n[nH]c(=O)o2)c1C` (stereo partly drawn) [Example 74, N-((1S)-2-(6-fluoro-2,3-dimethylphenyl)-1-(5-oxo-4,5-dihydro-1,3,4-oxadiazol-2-yl)propyl)-4-(5-fluorobenzo[d]isoxazol-3-yl)piperidine-1-sulfonamide], 100 to 1000 nM.
With `Cc1ccc(F)c(C(C)[C@H](NS(=O)(=O)N2CCC(NC(=O)C(C)(C)C)CC2)c2n[nH]c(=O)o2)c1C` (stereo partly drawn) [Example 75, N-(1-(N-((1S)-2-(6-fluoro-2,3-dimethylphenyl)-1-(5-oxo-4,5-dihydro-1,3,4-oxadiazol-2-yl)propyl)sulfamoyl)piperidin-4-yl)pivalamide], the IC50 is 1000 to 10000 nM.
The value for `Cc1ccc(F)c([C@@H](C)[C@H](NS(=O)(=O)N2CCC3(CC2)CC(=O)N(C)C3)c2n[nH]c(=O)o2)c1C` [Example 76, N-((1S,2R)-2-(6-fluoro-2,3-dimethylphenyl)-1-(5-oxo-4,5-dihydro-1,3,4-oxadiazol-2-yl)propyl)-2-methyl-3-oxo-2,8-diazaspiro[4.5]decane-8-sulfonamide] was 100 to 1000 nM.
To `Cc1ccc(F)c([C@H](C)[C@H](NS(=O)(=O)N2CCC3(CC2)CC(=O)N(C)C3)c2n[nH]c(=O)o2)c1C` [Example 77, N-((1S,2S)-2-(6-fluoro-2,3-dimethylphenyl)-1-(5-oxo-4,5-dihydro-1,3,4-oxadiazol-2-yl)propyl)-2-methyl-3-oxo-2,8-diazaspiro[4.5]decane-8-sulfonamide] belongs 10000 to 100000 nM; to `COC(=O)C1(C)CCN(S(=O)(=O)N[C@H](c2n[nH]c(=O)o2)[C@H](C)c2c(F)ccc(C)c2C)CC1` [Example 78, methyl 1-(N-((1S,2R)-2-(6-fluoro-2,3-dimethylphenyl)-1-(5-oxo-4,5-dihydro-1,3,4-oxadiazol-2-yl)propyl)sulfamoyl)-4-methylpiperidine-4-carboxylate], 100 to 1000 nM; to `CCCCC1CCN(S(=O)(=O)N[C@H](c2n[nH]c(=O)o2)[C@H](C)c2c(F)ccc(C)c2C)CC1` [Example 79, 4-butyl-N-((1S,2R)-2-(6-fluoro-2,3-dimethylphenyl)-1-(5-oxo-4,5-dihydro-1,3,4-oxadiazol-2-yl)propyl)piperidine-1-sulfonamide], 1000 to 10000 nM.
The value for `Cc1ccc(F)c(C(C)[C@H](NS(=O)(=O)N2CCC(N3CCCC3=O)CC2)c2n[nH]c(=O)o2)c1C` (stereo partly drawn) [Example 80, N-((1S)-2-(6-fluoro-2,3-dimethylphenyl)-1-(5-oxo-4,5-dihydro-1,3,4-oxadiazol-2-yl)propyl)-4-(2-oxopyrrolidin-1-yl)piperidine-1-sulfonamide] was 1000 to 10000 nM; that for `Cc1ccc(F)c([C@@H](C)[C@H](NS(=O)(=O)N2CCC(C)(C#N)CC2)c2n[nH]c(=O)o2)c1C` [Example 81, 4-cyano-N-((1S,2R)-2-(6-fluoro-2,3-dimethylphenyl)-1-(5-oxo-4,5-dihydro-1,3,4-oxadiazol-2-yl)propyl)-4-methylpiperidine-1-sulfonamide] was 100 to 1000 nM; that for `Cc1ccc(F)c([C@H](C)[C@H](NS(=O)(=O)N2CCC(C)(C#N)CC2)c2n[nH]c(=O)o2)c1C` [Example 82, 4-cyano-N-((1S,2S)-2-(6-fluoro-2,3-dimethylphenyl)-1-(5-oxo-4,5-dihydro-1,3,4-oxadiazol-2-yl)propyl)-4-methylpiperidine-1-sulfonamide] was 1000 to 10000 nM.
`Cc1ccc(F)c([C@@H](C)[C@H](NS(=O)(=O)N2CCC3(CCCN(C)C3)CC2)c2n[nH]c(=O)o2)c1C` [Example 83, N-((1S,2R)-2-(6-fluoro-2,3-dimethylphenyl)-1-(5-oxo-4,5-dihydro-1,3,4-oxadiazol-2-yl)propyl)-2-methyl-2,9-diazaspiro[5.5]undecane-9-sulfonamide]: the IC50 lay in the range of 1000 to 10000 nM.
To `Cc1ccc(F)c([C@H](C)[C@H](NS(=O)(=O)N2CCC3(CCCN(C)C3)CC2)c2n[nH]c(=O)o2)c1C` [Example 84, N-((1S,2S)-2-(6-fluoro-2,3-dimethylphenyl)-1-(5-oxo-4,5-dihydro-1,3,4-oxadiazol-2-yl)propyl)-2-methyl-2,9-diazaspiro[5.5]undecane-9-sulfonamide] belongs 10000 to 100000 nM.
To `Cc1ccc(F)c([C@@H](C)[C@H](NS(=O)(=O)N2CCC3(CC2)OCCCO3)c2n[nH]c(=O)o2)c1C` [Example 85, N-((1S,2R)-2-(6-fluoro-2,3-dimethylphenyl)-1-(5-oxo-4,5-dihydro-1,3,4-oxadiazol-2-yl)propyl)-1,5-dioxa-9-azaspiro[5.5]undecane-9-sulfonamide] belongs 100 to 1000 nM; to `Cc1ccc(F)c([C@H](C)[C@H](NS(=O)(=O)N2CCC3(CC2)OCCCO3)c2n[nH]c(=O)o2)c1C` [Example 86, N-((1S,2S)-2-(6-fluoro-2,3-dimethylphenyl)-1-(5-oxo-4,5-dihydro-1,3,4-oxadiazol-2-yl)propyl)-1,5-dioxa-9-azaspiro[5.5]undecane-9-sulfonamide], 1000 to 10000 nM; to `Cc1ccc(F)c([C@@H](C)[C@H](NS(=O)(=O)N2CCC3(CCCCC3)CC2)c2n[nH]c(=O)o2)c1C` [Example 87, N-((1S,2R)-2-(6-fluoro-2,3-dimethylphenyl)-1-(5-oxo-4,5-dihydro-1,3,4-oxadiazol-2-yl)propyl)-3-azaspiro[5.5]undecane-3-sulfonamide], 100 to 1000 nM.

Source of the values: patent publication US20240425490A1, “SULFAMIDE RIBONUCLEOTIDE REDUCTASE (RNR) INHIBITORS AND USES THEREOF” (Boundless Bio, Inc., priority 2021, published 2024).
